Results taken from PubChem BioAssay AID330 (DTP/NCI, 2004).
Where “and” joins values, the source holds several entries; their conditions need not be identical. Equal entries are not always repeated. Toxic doses and inconclusive results are not listed. Rule for the calls: active = survival T/C of 150% or more; inactive = T/C below 125% in these data.

Test system: P388 leukemia ip, CD2F1 mice, survival T/C
Assay: NCI In Vivo Anticancer Drug Screen. Data for tumor model P388 Leukemia (intraperitoneal) in CD2F1 (CDF1) mice
Conditions: endpoint: median survival time, higher = longer survival
How it was run: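 Mice carrying the transplanted tumor received test compound or vehicle. Survival was recorded in each group, and the value is the treated-group measurement divided by that of the vehicle-treated control group.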

[1] = dose: 100.0 mg/kg/injection, schedule: Q04DX002 (ip), vehicle: saline with Tween-80
[2] = dose: 200.0 mg/kg/injection, schedule: Q04DX002 (ip), vehicle: saline with Tween-80
[3] = dose: 400.0 mg/kg/injection, schedule: Q04DX002 (ip), vehicle: saline with Tween-80
[4] = dose: 50.0 mg/kg/injection, schedule: Q01DX005 (ip), vehicle: Klucel (hydroxypropylcellulose) (HPC)
[5] = dose: 100.0 mg/kg/injection, schedule: Q01DX005 (ip), vehicle: Klucel (hydroxypropylcellulose) (HPC)
[6] = dose: 200.0 mg/kg/injection, schedule: Q01DX005 (ip), vehicle: Klucel (hydroxypropylcellulose) (HPC)
[7] = dose: 12.5 mg/kg/injection, schedule: Q01DX005 (ip), vehicle: saline with Tween-80
[8] = dose: 25.0 mg/kg/injection, schedule: Q01DX005 (ip), vehicle: saline with Tween-80
[9] = dose: 50.0 mg/kg/injection, schedule: Q01DX005 (ip), vehicle: saline with Tween-80
[10] = dose: 100.0 mg/kg/injection, schedule: Q01DX005 (ip), vehicle: saline with Tween-80
[11] = dose: 25.0 mg/kg/injection, schedule: Q01DX009 (ip), vehicle: saline with Tween-80
[12] = dose: 50.0 mg/kg/injection, schedule: Q01DX009 (ip), vehicle: saline with Tween-80
[13] = dose: 100.0 mg/kg/injection, schedule: Q01DX009 (ip), vehicle: saline with Tween-80
[14] = dose: 60.0 mg/kg/injection, schedule: Q01DX005 (ip), vehicle: Klucel (hydroxypropylcellulose) (HPC)
[15] = dose: 120.0 mg/kg/injection, schedule: Q01DX005 (ip), vehicle: Klucel (hydroxypropylcellulose) (HPC)
[16] = dose: 240.0 mg/kg/injection, schedule: Q01DX005 (ip), vehicle: Klucel (hydroxypropylcellulose) (HPC)
[17] = dose: 200.0 mg/kg/injection, schedule: Q01DX005 (ip), vehicle: saline with Tween-80
[18] = dose: 60.0 mg/kg/injection, schedule: Q01DX005 (ip), vehicle: saline

Measured: T/C

COC(=O)C1=C(C2=C(C(=O)OC)CCC2)CCC1
inactive: [1] 93 % of control | [2] 97 % of control | [3] 100 % of control

CC(=O)c1ccc2c3c(cc(C)c2c1)CCCC3
inactive: [4] 103 % of control | [5] 99 % of control | [6] 89 % of control

Cc1cc(=NO)cc(C)n1O
inactive: dose: 25.0 mg/kg/injection, schedule: Q01DX005 (ip), vehicle: distilled water + alcohol 113 % of control | dose: 50.0 mg/kg/injection, schedule: Q01DX005 (ip), vehicle: distilled water + alcohol 113 % of control and 123 % of control | dose: 50.0 mg/kg/injection, schedule: Q01DX005 (ip), vehicle: water 115 % of control | dose: 100.0 mg/kg/injection, schedule: Q01DX005 (ip), vehicle: distilled water + alcohol 121 % of control | dose: 100.0 mg/kg/injection, schedule: Q01DX005 (ip), vehicle: water 106 % of control | dose: 200.0 mg/kg/injection, schedule: Q01DX005 (ip), vehicle: water 118 % of control

S=C=NP1(N=C=S)=NP(N=C=S)(N=C=S)=NP(N=C=S)(N=C=S)=NP(N=C=S)(N=C=S)=N1 (stereo not given)
inactive: [7] 100 % of control | [8] 99 % of control | [9] 104 % of control and 109 % of control | [10] 114 % of control

C/C(=C\Cl)CO
inactive: [11] 111 % of control | [12] 111 % of control | [13] 94 % of control

Nc1cccc(S(=O)(=O)Nc2c(N)nc(SCC(=O)O)[nH]c2=O)c1
inactive: [14] 100 % of control | [15] 98 % of control | [16] 98 % of control

C=CC(C)(C)C1Oc2cc(O)ccc2C(=O)C1c1ccc(OC)c(OC)c1O (stereo not given)
inactive: dose: 100.0 mg/kg/injection, schedule: Q04DX003 (ip), vehicle: Klucel (hydroxypropylcellulose) (HPC) 92 % of control | dose: 200.0 mg/kg/injection, schedule: Q04DX003 (ip), vehicle: Klucel (hydroxypropylcellulose) (HPC) 100 % of control | dose: 400.0 mg/kg/injection, schedule: Q04DX003 (ip), vehicle: Klucel (hydroxypropylcellulose) (HPC) 92 % of control

CN1c2ccccc2S(=O)(=O)n2c(COc3ccccc3)nnc21
inactive: [7] 97 % of control | [8] 97 % of control | [9] 100 % of control and 91 % of control | [17] 88 % of control

CCOP(=O)(OCC)C1CCC(=O)O1 (stereo not given)
inactive: dose: 15.0 mg/kg/injection, schedule: Q01DX005 (ip), vehicle: saline 100 % of control | dose: 30.0 mg/kg/injection, schedule: Q01DX005 (ip), vehicle: saline 99 % of control | [18] 99 % of control and 94 % of control

COc1ccc(CN2CC(C)N(N=Cc3c4c(O)c5c(O)c(C)c6c(c5c3O)C(=O)C(C)(O/C=C/C(OC)C(C)C(OC(C)=O)C(C)C(O)C(C)C(O)C(C)/C=C/C=C(\C)C(=O)N4)O6)C(C)C2)cc1 (stereo not given)
inactive: [11] 110 % of control | [12] 103 % of control and 116 % of control | dose: 50.0 mg/kg/injection, schedule: Q01DX009 (ip), vehicle: suspension in saline 112 % of control | [13] 113 % of control and 119 % of control | dose: 100.0 mg/kg/injection, schedule: Q01DX009 (ip), vehicle: suspension in saline 108 % of control | dose: 200.0 mg/kg/injection, schedule: Q01DX009 (ip), vehicle: saline with Tween-80 119 % of control | dose: 200.0 mg/kg/injection, schedule: Q01DX009 (ip), vehicle: suspension in saline 91 % of control

N=c1c2ccccc2nc2n1CCCCC2
inactive: dose: 25.0 mg/kg/injection, schedule: Q04DX003 (ip), vehicle: saline 103 % of control | dose: 50.0 mg/kg/injection, schedule: Q04DX003 (ip), vehicle: saline 95 % of control

CCCCCC1(c2ccccc2)CCCC(C#N)C1=O (stereo not given)
inactive: dose: 100.0 mg/kg/injection, schedule: Q04DX003 (ip), vehicle: saline with Tween-80 101 % of control | dose: 200.0 mg/kg/injection, schedule: Q04DX003 (ip), vehicle: saline with Tween-80 88 % of control

O=C(NC(=S)c1cccs1)Nc1ccccc1
inactive: dose: 4.0 mg/kg/injection, schedule: Q01DX009 (ip), vehicle: saline with Tween-80 89 % of control | dose: 8.0 mg/kg/injection, schedule: Q01DX009 (ip), vehicle: saline with Tween-80 94 % of control | dose: 16.0 mg/kg/injection, schedule: Q01DX009 (ip), vehicle: saline with Tween-80 87 % of control | [12] 89 % of control | [13] 100 % of control

Cc1cc2ccccc2nc1Cl
inactive: dose: 60.0 mg/kg/injection, schedule: Q01DX005 (ip), vehicle: saline + Tween-80 + alcohol 100 % of control | dose: 120.0 mg/kg/injection, schedule: Q01DX005 (ip), vehicle: saline + Tween-80 + alcohol 104 % of control | dose: 240.0 mg/kg/injection, schedule: Q01DX005 (ip), vehicle: saline + Tween-80 + alcohol 104 % of control

CCN(CC)CCNc1cccc2oc3ccc(OS(=O)(=O)c4ccc(C)cc4)cc3c(=O)c12
inactive: [9] 97 % of control | [10] 100 % of control | [17] 102 % of control

Cc1cccn2cc(CC(=O)O)nc12
inactive: dose: 100.0 mg/kg/injection, schedule: Q01DX001 (ip), vehicle: saline 105 % of control | dose: 200.0 mg/kg/injection, schedule: Q01DX001 (ip), vehicle: saline 104 % of control | dose: 400.0 mg/kg/injection, schedule: Q01DX001 (ip), vehicle: saline 109 % of control

COc1ccc(N2C(=O)CC(n3ccccc3=O)C2=O)cc1 (stereo not given)
inactive: [1] 100 % of control | [2] 99 % of control | [3] 101 % of control

O=C1CNC(=O)c2cc(Cl)ccc2N1
inactive: dose: 50.0 mg/kg/injection, schedule: Q01DX009 (ip), vehicle: Klucel (hydroxypropylcellulose) (HPC) 103 % of control | dose: 100.0 mg/kg/injection, schedule: Q01DX009 (ip), vehicle: Klucel (hydroxypropylcellulose) (HPC) 97 % of control | dose: 200.0 mg/kg/injection, schedule: Q01DX009 (ip), vehicle: Klucel (hydroxypropylcellulose) (HPC) 100 % of control

NOCc1cccc(C(F)(F)F)c1
inactive: dose: 75.0 mg/kg/injection, schedule: Q01DX009 (ip), vehicle: saline with Tween-80 87 % of control | dose: 150.0 mg/kg/injection, schedule: Q01DX009 (ip), vehicle: saline with Tween-80 91 % of control | dose: 300.0 mg/kg/injection, schedule: Q01DX009 (ip), vehicle: saline with Tween-80 91 % of control

O=c1oc(-c2ccccc2)nc2c1CCS2
inactive: [4] 93 % of control | [5] 97 % of control | [6] 90 % of control

CN(C)CCCNC(=O)c1cccc2cccc(C(=O)O)c12
inactive: [18] 97 % of control | dose: 120.0 mg/kg/injection, schedule: Q01DX005 (ip), vehicle: saline 101 % of control | dose: 240.0 mg/kg/injection, schedule: Q01DX005 (ip), vehicle: saline 104 % of control

COC(=O)C1C(OS(=O)(=O)O)CCC2CN3CCc4c([nH]c5ccccc45)C3CC21 (stereo not given)
inactive: [14] 102 % of control | [15] 105 % of control | [16] 103 % of control
